# What was measured:
# Assay in all cases: ≥ marks a high value that may be exact or a test limit, other limits are often not marked, values filed in µg/mL are converted to µM
# [1] = system: Escherichia coli ATCC 25922
# [2] = system: Staphylococcus aureus ATCC 29213
# [3] = system: Salmonella typhimurium CMCC 50013
# [4] = system: Bacillus subtilis KCTC 3068
# [5] = system: Acinetobacter baumannii ATCC 19606
# [6] = system: Escherichia coli ATCC 23506
# [7] = system: Candida albicans ATCC 10231
# [8] = system: Staphylococcus aureus ATCC 9144
# [9] = system: Staphylococcus aureus ATCC 25923
# [10] = system: Pseudomonas aeruginosa ATCC 9027
# [11] = system: Enterococcus faecalis PCM 2673
# [12] = system: Streptococcus pneumoniae ATCC 49619
# [13] = system: Aspergillus niger ATCC 16404
# [14] = system: Candida glabrata ATCC 15126
# [15] = system: Klebsiella pneumoniae ATCC 700603
# [16] = system: Staphylococcus aureus ATCC 700698
# [17] = system: Sporothrix schenckii
# [18] = system: Candida parapsilosis ATCC 22019
# [19] = system: Staphylococcus aureus ATCC BAA-44
# [20] = system: Cryptococcus neoformans
# [21] = system: Staphylococcus aureus ATCC 33592
# [22] = system: Pseudomonas aeruginosa ATCC BAA-427
# [23] = system: Klebsiella pneumoniae ATCC 27736
# [24] = system: Bacillus subtilis ATCC 6633
# [25] = system: Escherichia coli ATCC 9637
# [26] = system: Staphylococcus aureus ATCC 700699
# [27] = system: Escherichia coli UB1005
# [28] = system: Pseudomonas aeruginosa PAO1
# [29] = system: Bacillus cereus C737
# [30] = system: Bacillus subtilis ATCC 6051
# [31] = system: Vibrio anguillarum ATCC 43305
# [32] = system: Pseudomonas aeruginosa ATCC 27853
# [33] = system: Klebsiella pneumoniae ATCC 13883
# [34] = system: Staphylococcus aureus USA 300 LAC
# [35] = system: Staphylococcus aureus USA 300
# [36] = system: Staphylococcus epidermidis KCTC 1917
# [37] = system: Staphylococcus aureus KCTC 1621
# [38] = system: Escherichia coli KCTC 1682
# [39] = system: Staphylococcus aureus MR
# [40] = system: Enterococcus faecium
# [41] = system: Enterococcus faecalis
# [42] = system: Enterococcus faecium VR
# [43] = system: Pseudomonas aeruginosa KCTC 1637
# [44] = system: Salmonella typhimurium KCTC 1926
# [45] = system: Enterococcus faecalis VR
structure (smiles),measurement,setting,value
NCCCC[C@H](NC(=O)[C@H](CCCN=C(N)N)NC(=O)CNC(=O)[C@@H](N)Cc1ccc(O)cc1)C(=O)N[C@@H](CCCCN)C(=O)N[C@@H](CCCN=C(N)N)C(=O)N[C@@H](CCCN=C(N)N)C(=O)N[C@@H](CCC(N)=O)C(=O)N[C@@H](CCCN=C(N)N)C(=O)N[C@@H](CCCN=C(N)N)C(=O)N[C@@H](CCCN=C(N)N)C(=O)O [YGRKKRRQRRR],MIC,[1],15.5 µM
same,MIC,[2],16.6 µM
same,MIC,[3],29 µM
same,MIC,[4],26.4 µM
CC[C@H](C)[C@H](NC(=O)[C@H](CC(C)C)NC(=O)[C@H](CCCN=C(N)N)NC(=O)[C@H](Cc1c[nH]c2ccccc12)NC(=O)[C@@H]1CCCN1C(=O)[C@H](Cc1c[nH]c2ccccc12)NC(=O)[C@H](Cc1c[nH]c2ccccc12)NC(=O)[C@@H]1CCCN1C(=O)[C@H](Cc1c[nH]c2ccccc12)NC(=O)[C@H](CCCN=C(N)N)NC(=O)[C@H](CCCN=C(N)N)NC(=O)[C@@H](N)CCCCN)C(N)=O [KRRWPWWPWRLI],MIC,[5],8.99 µM
same,MIC,[1],4.49 µM
same,MIC,[6],2.25 µM
same,MIC,[7],18 µM
same,MIC,[8],4.49 µM
same,MIC,[9],4.49 µM
same,MIC,[10],2.25 µM
same,MIC,[11],8.99 µM
same,MIC,[12],4.49 µM
same,MIC,[13],≥ 36 µM
same,MIC,[14],≥ 36 µM
same,MIC,[15],2.25 µM
CC[C@H](C)[C@H](NC(=O)[C@H](C)NC(=O)[C@H](CCCCN)NC(=O)CNC(=O)[C@H](C)NC(=O)[C@H](Cc1cnc[nH]1)NC(=O)[C@@H](NC(=O)[C@H](C)NC(=O)[C@@H]1CCCN1C(=O)[C@H](CCCCN)NC(=O)[C@@H](NC(=O)[C@H](CC(C)C)NC(=O)[C@H](Cc1c[nH]c2ccccc12)NC(=O)CNC(=O)[C@H](Cc1ccccc1)NC(=O)[C@@H](N)Cc1ccccc1)[C@@H](C)CC)[C@@H](C)CC)C(=O)N[C@@H](Cc1cnc[nH]1)C(=O)NCC(=O)N[C@@H](CC(C)C)C(=O)N[C@H](C(=O)N[C@@H](Cc1cnc[nH]1)C(=O)N[C@@H](CCCN=C(N)N)C(=O)N[C@@H](CCCN=C(N)N)C(=O)N[C@@H](CCCN=C(N)N)C(=O)N[C@@H](Cc1cnc[nH]1)C(=O)O)[C@@H](C)CC [FFGWLIKPAIHAGKAIHGLIHRRRH],MIC,[16],1.6 µM
same,MIC,[2],1.6 µM
same,MIC,[7],3 µM
same,MIC,[9],3 µM
same,MIC,[17],13.6 µM
same,MIC,[18],6.8 µM
same,MIC,[19],1.6 µM
same,MIC,[20],6.8 µM
same,MIC,[21],0.8 µM
same,MIC,[22],6.8 µM
same,MIC,[23],3.3 µM
same,MIC,[24],3 µM
same,MIC,[25],3.3 µM
same,MIC,[26],1.6 µM
CC[C@H](C)[C@H](NC(=O)[C@H](CC(=O)O)NC(=O)[C@H](Cc1ccccc1)NC(=O)[C@H](CC(C)C)NC(=O)CN)C(=O)N[C@H](C(=O)N[C@@H](CCCCN)C(=O)N[C@@H](CCCCN)C(=O)N[C@H](C(=O)N[C@H](C(=O)NCC(=O)N[C@@H](C)C(=O)N[C@H](C(=O)NCC(=O)N[C@@H](CO)C(=O)N[C@@H](CC(C)C)C(N)=O)C(C)C)C(C)C)C(C)C)C(C)C [GLFDIVKKVVGAVGSL],MIC,[27],≥ 40 µM
same,MIC,[28],> 79.9 µM
same,MIC,[29],≥ 79.9 µM
CC(C)C[C@H](N)C(=O)N[C@@H](CCCN=C(N)N)C(=O)N[C@@H](Cc1c[nH]c2ccccc12)C(=O)N[C@H](C(=O)N1CCC[C@H]1C(=O)N[C@H](C(=O)N1CCC[C@H]1C(=O)N[C@@H](CO)C(=O)N[C@@H](Cc1ccc(O)cc1)C(=O)N1CCC[C@H]1C(=O)N[C@@H](CCCN=C(N)N)C(=O)N[C@@H](Cc1ccc(O)cc1)C(=O)N1CCC[C@H]1C(=O)N[C@H](C(=O)N[C@@H](CCCN=C(N)N)C(=O)N[C@@H](CO)C(=O)N[C@@H](CCCN=C(N)N)C(=O)NCC(=O)N[C@@H](CO)C(=O)N[C@@H](CCCN=C(N)N)C(=O)N[C@@H](Cc1c[nH]c2ccccc12)C(=O)N[C@@H](CO)C(=O)N[C@@H](CCCN=C(N)N)C(N)=O)[C@@H](C)O)[C@@H](C)O)[C@@H](C)O [LRWTPTPSYPRYPTRSRGSRWSR],MIC,[5],8 µM
same,MIC,[1],11.3 µM
same,MIC,[9],> 32 µM
same,MIC,[30],≥ 32 µM
same,MIC,[31],≥ 32 µM
same,MIC,[32],> 32 µM
CC[C@H](C)[C@H](NC(=O)[C@H](CCCN=C(N)N)NC(=O)[C@H](CCCN=C(N)N)NC(=O)[C@H](CC(C)C)NC(=O)[C@H](Cc1c[nH]c2ccccc12)NC(=O)[C@H](CCCN=C(N)N)NC(=O)[C@@H](N)Cc1c[nH]c2ccccc12)C(=O)N[C@@H](Cc1c[nH]c2ccccc12)C(N)=O [WRWLRRIW],MIC,[1],25 µM
same,MIC,[33],25 µM
same,MIC,[34],6.2 µM
same,MIC,[28],6.2 µM
same,MIC,[35],6.2 µM
CC(C)C[C@H](NC(=O)[C@H](CO)NC(=O)[C@H](CC(C)C)NC(=O)[C@H](CS)NC(=O)[C@H](CC(N)=O)NC(=O)[C@H](C)NC(=O)[C@H](C)N)C(=O)NCC(=O)N[C@@H](CCCCN)C(=O)N[C@@H](C)C(N)=O [AANCLSLGKA],MIC,[36],30 µM
same,MIC,[37],30 µM
same,MIC,[4],30 µM
same,MIC,[38],30 µM
same,MIC,[39],30 µM
same,MIC,[40],30 µM
same,MIC,[41],30 µM
same,MIC,[42],30 µM
same,MIC,[43],30 µM
same,MIC,[44],30 µM
same,MIC,[45],30 µM
